For one assay, the target named is T1, ERbeta protein (Homo sapiens, UniProt Q92731).
T1 construct: […]; His6 (leader […]) (N)
The assay is described as follows: ER beta FP binding assay. The conditions noted are these: 6 nM ERbeta protein, 1.5 nM ER FP ligand (Fluormone EL Red), 3 hours at room temperature; read-out: pIC50 in the ER beta FP binding assay (converted). The procedure:
(§1) Assay Buffer (AB) (50 mM MOPES pH 7.5, 50 mM NaF, 2.5 mM CHAPs), in deionized water, 5 mM 1,4 dithiothreitol (DTT) added on day of the experiment. The appropriate amount of AB was placed in a plastic tube, adding solid DTT before the assay was run. AB with DTT was distributed to plastic tubes. We have found use of plastic to be important vs glass. A final concentration of 6 nM ERbeta protein was added to the tube followed by gentle inversion. A final concentration of 1.5 nM ER FP ligand (Fluormone™ EL Red 200 nM in 20 mM Tris, 90% Methanol purchased from Invitrogen catalogue no P3030) was added to the same tube followed by gentle inversion. This was allowed to sit for 5-10 minutes before adding it to the 384 assay plate. Similar protocol was used for ERalpha with a final concentration of 4 nM ERalpha and 1.5 nM ER FP ligand.
(§2) 384 plates containing test compounds dissolved in 100% DMSO at 1 mM were serially diluted (1:3) by a Beckman FX. Serial diluted test compounds were added, […], to the assay plates with a maximum final concentration of 10 uM. Once the assay plates were ready, 10 uL of the above reagents were added to the appropriate set of plates with the Thermo combi. These plates were then sealed and place at room temperature for 3 hours.
The plates were then placed on the Molecular Devices Analyst and counted (excitation 535 nm, emission 590 nm with a 561 Dichroic mirror). Data was normalized to control then fitted to a non-linear least squares algorithm (see below).
pIC50 Calculation y=a+((b−a)/(1+(10^x/10^c)^d) Results
The amino acid sequence of human ER beta used in this assay is […]

A further assay deals with T2, ERalpha (Homo sapiens, UniProt P03372).
T2 construct: […]; His6 (leader […]G) (N)
T2 sequence (P03372 with tags, fused parts or gaps): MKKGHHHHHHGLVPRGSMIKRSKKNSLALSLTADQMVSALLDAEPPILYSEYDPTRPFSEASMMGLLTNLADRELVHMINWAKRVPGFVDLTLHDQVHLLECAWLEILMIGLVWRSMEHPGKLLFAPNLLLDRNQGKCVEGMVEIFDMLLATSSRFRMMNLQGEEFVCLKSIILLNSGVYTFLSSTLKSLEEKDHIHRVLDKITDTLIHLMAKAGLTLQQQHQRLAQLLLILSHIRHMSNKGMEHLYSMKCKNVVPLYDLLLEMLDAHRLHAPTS
The assay is described as follows: ER alpha FP binding assay. The conditions noted are these: ER beta versus ER alpha, FP binding assays. The method, then: as §1, §2
The plates were then placed on the Molecular Devices Analyst and counted (excitation 535 nm, emission 590 nm with a 561 Dichroic mirror). […]

Where only a bound is given, the exact number is not on record here.

The source of these data is US7960563B2, “Indazoles used to treat estrogen receptor beta mediated disorders” (Glaxo Group Limited, priority 2007, dated 2011).

T1 sequence (Q92731 with tags, fused parts or gaps): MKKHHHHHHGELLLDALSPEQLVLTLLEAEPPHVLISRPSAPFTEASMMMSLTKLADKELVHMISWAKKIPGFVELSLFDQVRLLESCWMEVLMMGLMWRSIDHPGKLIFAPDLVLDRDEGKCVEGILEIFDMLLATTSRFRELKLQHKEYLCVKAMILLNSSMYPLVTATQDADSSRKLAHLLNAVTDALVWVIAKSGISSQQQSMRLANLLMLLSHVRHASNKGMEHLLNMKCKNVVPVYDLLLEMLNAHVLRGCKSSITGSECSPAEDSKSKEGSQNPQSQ

For the compound `Oc1ccc(-n2ncc3c(O)cc(Br)cc32)cc1F` [Example 5, 6-Bromo-1-(3-fluoro-4-hydroxyphenyl)-1H-indazol-4-ol], the IC50 at ERbeta protein was less than 100 nM.
Same read-out and setting: with `Oc1ccc(-n2ncc3c(O)cccc32)cc1Cl` [Example 17, 1-(3-Chloro-4-hydroxyphenyl)-1H-indazol-4-ol] the figure was less than 100 nM.
Turning to `CCc1cc(O)c2cnn(-c3ccc(O)c(F)c3)c2c1` [Example 7, 6-Ethyl-1-(3-fluoro-4-hydroxyphenyl)-1H-indazol-4-ol], the IC50 at ERbeta protein was less than 100 nM.
Still for that read-out and setting: with `Oc1ccc(-n2ncc3c(O)ccc(Cl)c32)cc1F` [Example 14, 7-Chloro-1-(3-fluoro-4-hydroxyphenyl)-1H-indazol-4-ol] the figure was less than 100 nM; with `Oc1ccc(-n2ncc3c(O)ccc(F)c32)cc1F` [Example 13, 7-Fluoro-1-(3-fluoro-4-hydroxyphenyl)-1H-indazol-4-ol], less than 100 nM.
As to `Oc1ccc(-n2ncc3c(O)cccc32)cc1F` [Example 1, 1-(3-Fluoro-4-hydroxyphenyl)-1H-indazol-4-ol], the “selectivity versus ER alpha” value on ERalpha is given as greater than 10 fold. Moreover, the IC50 at ERbeta protein was less than 100 nM.
Turning to `Oc1ccc(-n2ncc3c(O)c(Br)ccc32)cc1F` [Example 11, 5-Bromo-1-(3-fluoro-4-hydroxyphenyl)-1H-indazol-4-ol], the IC50 on ERbeta protein is less than 100 nM.
Turning to `Oc1ccc(-n2ncc3c(O)cc(F)cc32)cc1F` [Example 4, 6-Fluoro-1-(3-fluoro-4-hydroxyphenyl)-1H-indazol-4-ol], the IC50 on ERbeta protein is less than 100 nM.
On the same count and under the same terms, with `Cc1cc(O)c2cnn(-c3ccc(O)c(F)c3)c2c1` [Example 9, 1-(3-Fluoro-4-hydroxyphenyl)-6-methyl-1H-indazol-4-ol] the figure was less than 100 nM.
For `Oc1ccc(-n2ncc3c(O)cc(Cl)cc32)cc1F` [Example 8, 6-Chloro-1-(3-fluoro-4-hydroxyphenyl)-1H-indazol-4-ol], the IC50 on ERbeta protein was less than 100 nM.
In the case of `C=Cc1cc(O)c2cnn(-c3ccc(O)c(F)c3)c2c1` [Example 6, 6-Ethenyl-1-(3-fluoro-4-hydroxyphenyl)-1H-indazol-4-ol], the IC50 at ERbeta protein is less than 100 nM.
Take `N#Cc1cc(O)c2cnn(-c3ccc(O)c(F)c3)c2c1` [Example 3, 1-(3-Fluoro-4-hydroxyphenyl)-4-hydroxy-1H-indazole-6-carbonitrile]: on ERbeta protein, the IC50 is less than 100 nM.
Take `Oc1ccc(-n2ncc3c(O)c(F)ccc32)cc1F` [Example 10, 5-Fluoro-1-(3-fluoro-4-hydroxyphenyl)-1H-indazol-4-ol]: on ERbeta protein, the IC50 is less than 100 nM.
